Source: patent US20160016951A1 (Merck Patent GmbH, priority 2014, published 2016)

Target: T1, CDK8 (CDK8/CycC) (Homo sapiens, UniProt P49336)
T1 construct: purchased Invitrogen PV4402
Assay: FRET based Lanthascreen binding competition assay
Details: 5 nM CDK8/CycC, 10 nM Alexa647-Tracer, 1% DMSO, 60 min at RT; read-out: IC50 CDK8 binding
Procedure: FRET based Lanthascreen binding competition assay: A dye-labeled ATP competitive probe served as a FRET acceptor upon binding to CDK8 labeled with a strepavidin —Eu-chelate (via abiotinylated anti His antibody). […] In case this probe was competed by an inhibitor as such a signal cannot be generated any more. The CDK8 used for this assay was a protein co-expressed with CycC.
The assay procedure for an assay in a 1536 well plate was performed according to the following: 2 μL CDK8/biotin-anti-His Ab/SA-Eu mix in Assay buffer were pipetted into the wells of a micro plate.
1 μL compound in 20 mM Hepes buffer/5% DMSO was added. The plate was shaken for 30 sec and incubated for 20 min at RT. 2 μL Alexa647-probe in assay buffer were added. The plate was shaken for 30 sec again and incubated for 60 min at RT in the dark. Then the plate was read out on a Perkin Elmer Envision (mode LANCE/TRF, excitation 340 nm emission 650 nm).

T1 sequence (P49336 whole entry): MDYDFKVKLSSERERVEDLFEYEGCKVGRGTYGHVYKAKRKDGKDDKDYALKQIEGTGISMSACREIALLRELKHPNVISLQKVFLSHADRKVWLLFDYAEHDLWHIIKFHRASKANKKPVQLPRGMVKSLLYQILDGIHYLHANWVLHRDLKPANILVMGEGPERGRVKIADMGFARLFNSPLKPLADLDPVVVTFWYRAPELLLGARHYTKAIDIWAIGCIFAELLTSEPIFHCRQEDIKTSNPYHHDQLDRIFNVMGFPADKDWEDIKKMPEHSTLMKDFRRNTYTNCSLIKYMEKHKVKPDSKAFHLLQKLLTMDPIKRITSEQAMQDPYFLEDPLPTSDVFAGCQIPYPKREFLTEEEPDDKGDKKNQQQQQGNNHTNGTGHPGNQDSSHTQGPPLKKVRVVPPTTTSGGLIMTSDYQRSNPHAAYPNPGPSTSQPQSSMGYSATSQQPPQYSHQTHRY
T1 sequence (P24863 whole entry partner): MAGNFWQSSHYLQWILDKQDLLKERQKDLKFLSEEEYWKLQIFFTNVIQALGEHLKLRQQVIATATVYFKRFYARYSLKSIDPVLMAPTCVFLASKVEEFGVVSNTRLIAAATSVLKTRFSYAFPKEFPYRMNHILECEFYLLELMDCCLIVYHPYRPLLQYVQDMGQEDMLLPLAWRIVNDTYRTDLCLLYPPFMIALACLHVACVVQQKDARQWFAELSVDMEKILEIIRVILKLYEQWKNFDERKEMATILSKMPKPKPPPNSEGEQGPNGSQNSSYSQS

Compound	IC50
CN1C(=O)CCc2cc(-c3cnc(N)c4ccc(C(=O)N5CC(F)(F)C5)cc34)ccc21 [Compound 172, 6-[1-Amino-6-(3,3-difluoro-azetidine-1-carbonyl)-isoquinolin-4-yl]-1-methyl-3,4-dihydro-1H-quinolin-2-one]	101 to 500 nM
Cn1cc(-c2ccc(-c3c(Cl)ncc4ccc(C(N)=O)nc34)cc2)cn1 [Compound 66, 7-Chloro-8-(4-(1-methyl-1H-pyrazol-4-yl)phenyl)-1,6-naphthyridine-2-carboxamide]	101 to 500 nM
COC1CN(C(=O)c2ccc3cncc(-c4ccc(-c5cc(C(F)(F)F)nn5C)cc4)c3n2)C1 [Compound 57, (3-methoxyazetidin-1-yl)(8-(4-(1-methyl-3-(trifluoromethyl)-1H-pyrazol-5-yl)phenyl)-1,6-naphthyridin-2-yl)methanone]	101 to 500 nM
CN1c2ccc(-c3cnc(N)c4ccc(CO)nc34)cc2CS1(=O)=O [Compound 58, [5-Amino-8-(1-methyl-2,2-dioxo-2,3-dihydro-1H-benzo[c]isothiazol-5-yl)-[1,6]naphthyridin-2-yl]-methanol]	101 to 500 nM
CNC(=O)c1ccc2c(N)ncc(-c3ccc(-c4cnn(C)c4)cc3F)c2n1 [Compound 40, 5-amino-8-(2-fluoro-4-(1-methyl-1H-pyrazol-4-yl)phenyl)-N-methyl-1,6-naphthyridine-2-carboxamide]	10 to 100 nM
CC(=O)N1CCN(c2ccc3cncc(-c4ccc(-c5cnn(C)c5)cc4)c3c2)CC1 [Compound 125, 1-(4-{4-[4-(1-Methyl-1H-pyrazol-4-yl)-phenyl]-isoquinolin-6-yl}-piperazin-1-yl)-ethanone]	101 to 500 nM
CC(C)(O)Cn1cc(-c2ccc(-c3cncc4ccc(N5C(=O)Cc6ccccc65)cc34)cc2)cn1 [Compound 150, 1-(4-(4-(1-(2-hydroxy-2-methylpropyl)-1H-pyrazol-4-yl)phenyl)isoquinolin-6-yl)indolin-2-one]	10 to 100 nM
CN1c2ccc(-c3cncc4ccc(-c5ncco5)cc34)cc2CS1(=O)=O [Compound 107, 1-methyl-5-(6-(oxazol-2-yl)isoquinolin-4-yl)-1,3-dihydrobenzo[c]isothiazole 2,2-dioxide]	10 to 100 nM
CN1C(=O)Cc2cc(-c3cnc(N)c4ccc(C(=O)N5CC(F)(F)C5)cc34)ccc21 [Compound 171, 5-[1-Amino-6-(3,3-difluoro-azetidine-1-carbonyl)-isoquinolin-4-yl]-1-methyl-1,3-dihydro-indol-2-one]	10 to 100 nM
CC(C)(O)Cn1cc(-c2ccc(-c3cncc4ccc(C(=O)N5CCOCC5)cc34)cc2)cn1 [Compound 135]	10 to 100 nM
N#Cc1ccc2cncc(-c3ccc4c(c3)NC(=O)C4)c2c1 [Compound 148, 4-(2-oxoindolin-6-yl)isoquinoline-6-carbonitrile]	10 to 100 nM
COCCN(c1ccc2cncc(-c3ccc(-c4cnn(C)c4)cc3)c2c1)S(C)(=O)=O [Compound 167, N-(2-methoxyethyl)-N-(4-(4-(1-methyl-1H-pyrazol-4-yl)phenyl)isoquinolin-6-yl)methanesulfonamide]	101 to 500 nM
COC1CN(C(=O)c2ccc3cncc(-c4ccc(-c5cn(C)nc5C(F)(F)F)cc4)c3n2)C1 [Compound 49, (3-methoxyazetidin-1-yl)(8-(4-(1-methyl-3-(trifluoromethyl)-1H-pyrazol-4-yl)phenyl)-1,6-naphthyridin-2-yl)methanone]	10 to 100 nM
CN(C)C(=O)c1ccc2cncc(-c3ccc4c(c3)CS(=O)(=O)N4)c2n1 [Compound 46, 8-(2,2-Dioxo-2,3-dihydro-1H-benzo[c]isothiazol-5-yl)-[1,6]naphthyridine-2-carboxylic acid dimethylamide]	10 to 100 nM
Cc1cnc(N)c2ccc(C(=O)N3CCC[C@H]3c3ccc(Cl)cc3)nc12 [Compound 88, (S)-(5-amino-8-methyl-1,6-naphthyridin-2-yl)(2-(4-chlorophenyl)pyrrolidin-1-yl)methanone]	10 to 100 nM
Cc1ncc(-c2ccc(-c3cnn(C)c3)cc2)c2nc(C(N)=O)ccc12 [Compound 61, 5-Methyl-8-(4-(1-methyl-1H-pyrazol-4-yl)phenyl)-1,6-naphthyridine-2-carboxamide]	101 to 500 nM
CN(CCO)C(=O)c1ccc2cncc(-c3ccc4c(c3)CS(=O)(=O)N4)c2n1 [Compound 45, 8-(2,2-Dioxo-2,3-dihydro-1H-benzo[c]isothiazol-5-yl)-[1,6]naphthyridine-2-carboxylic acid (2-hydroxy-ethyl)-methyl-amide]	10 to 100 nM
COC1CN(C(=O)c2ccc3c(N)ncc(-c4ccc(-c5ccn(C)n5)cc4)c3n2)C1 [Compound 160, (5-amino-8-(4-(1-methyl-1H-pyrazol-3-yl)phenyl)-1,6-naphthyridin-2-yl)(3-methoxyazetidin-1-yl)methanone]	101 to 500 nM
Cn1cc(-c2ccc(-c3cncc4ccc(N5CCCC5=O)cc34)cc2)cn1 [Compound 128, 1-(4-(4-(1-Methyl-1H-pyrazol-4-yl)phenyl)isoquinolin-6-yl)pyrrolidin-2-one]	10 to 100 nM

The next lines start with the values.

IC50	Compound
< 10 nM	CC(C)(O)Cn1cc(-c2ccc(-c3cncc4ccc(NS(C)(=O)=O)cc34)cc2)cn1 [Compound 138, N-(4-(4-(1-(2-hydroxy-2-methylpropyl)-1H-pyrazol-4-yl)phenyl)isoquinolin-6-yl)methanesulfonamide]
< 10 nM	CC(C)(O)Cn1cc2cc(-c3cncc4ccc(NS(C)(=O)=O)cc34)ccc2n1 [Compound 151, N-(4-(2-(2-hydroxy-2-methylpropyl)-2H-indazol-5-yl)isoquinolin-6-yl)methanesulfonamide]
10 to 100 nM	CNCc1ccc2cncc(-c3ccc4c(c3)CS(=O)(=O)N4C)c2n1 [Compound 53, Methyl-[8-(1-methyl-2,2-dioxo-2,3-dihydro-1H-benzo[c]isothiazol-5-yl)-[1,6]naphthyridin-2-ylmethyl]-amine]
10 to 100 nM	Cc1nc(-c2ccc(-c3cnc(N)c4ccc(C(=O)N5CC(F)(F)C5)cc34)cc2)cn1C [Compound 176, {1-Amino-4-[4-(1,2-dimethyl-1H-imidazol-4-yl)-phenyl]-isoquinolin-6-yl}-(3,3-difluoro-azetidin-1-yl)-methanone]
10 to 100 nM	C[C@@H](NC(=O)c1ccc2cncc(Br)c2n1)c1ccccc1 [Compound 48, (R)-8-bromo-N-(1-phenylethyl)-1,6-naphthyridine-2-carboxamide]
< 10 nM	CN1c2ccc(-c3cncc4ccc(C(=O)N5CCNCC5)nc34)cc2CS1(=O)=O [Compound 18, [8-(1-Methyl-2,2-dioxo-2,3-dihydro-1H-benzo[c]isothiazol-5-yl)-[1,6]naphthyridin-2-yl]-piperazin-1-yl-methanone]
< 10 nM	Cn1cc(-c2ccc(-c3cncc4ccc(C(N)=O)nc34)c(F)c2)cn1 [Compound 14, 8-(2-fluoro-4-(1-methyl-1H-pyrazol-4-yl)phenyl)-1,6-naphthyridine-2-carboxamide]
10 to 100 nM	CN1c2ccc(-c3cncc4ccc(N5CCCC5=O)cc34)cc2CS1(=O)=O [Compound 129, 1-(4-(1-Methyl-2,2-dioxido-1,3-dihydrobenzo[c]isothiazol-5-yl)isoquinolin-6-yl)pyrrolidin-2-one]
< 10 nM	CN(O)C(=O)c1ccc2cncc(-c3ccc(-c4cnn(C)c4)cc3)c2n1 [Compound 76, N-Hydroxy-N-methyl-8-(4-(1-methyl-1H-pyrazol-4-yl)phenyl)-1,6-naphthyridine-2-carboxamide]
< 10 nM	O=C1Cc2ccc(-c3cncc4ccc(C(=O)N5CCC5)cc34)cc2N1 [Compound 145, 6-(6-(azetidine-1-carbonyl)isoquinolin-4-yl)indolin-2-one]
< 10 nM	COCCNc1ccc2cncc(-c3ccc(-c4cnn(C)c4)cc3)c2c1 [Compound 105, (2-Methoxy-ethyl)-{4-[4-(1-methyl-1H-pyrazol-4-yl)-phenyl]-isoquinolin-6-yl}-amine]
< 10 nM	COCCn1cc(-c2ccc(-c3cncc4ccc(NS(C)(=O)=O)cc34)cc2)cn1 [Compound 166, N-(4-(4-(1-(2-methoxyethyl)-1H-pyrazol-4-yl)phenyl)isoquinolin-6-yl)methanesulfonamide]
< 10 nM	CNC(=O)c1ccc2cncc(-c3ccc(-c4cnn(C)c4)cc3F)c2n1 [Compound 17, 8-(2-fluoro-4-(1-methyl-1H-pyrazol-4-yl)phenyl)-N-methyl-1,6-naphthyridine-2-carboxamide]
< 10 nM	O=C(c1ccc2cncc(Br)c2n1)N1CCC[C@H]1c1ccc(Cl)cc1 [Compound 34, (S)-(8-bromo-1,6-naphthyridin-2-yl)(2-(4-chlorophenyl)pyrrolidin-1-yl)methanone]
< 10 nM	Cc1cc(-c2cnn(C)c2)ccc1-c1cncc2ccc(C(N)=O)nc12 [Compound 19, 8-(2-methyl-4-(1-methyl-1H-pyrazol-4-yl)phenyl)-1,6-naphthyridine-2-carboxamide]
< 10 nM	CN1c2ccc(-c3cncc4ccc(-c5nccn5C)cc34)cc2CS1(=O)=O [Compound 93, 1-methyl-5-(6-(1-methyl-1H-imidazol-2-yl)isoquinolin-4-yl)-1,3-dihydrobenzo[c]isothiazole 2,2-dioxide]
< 10 nM	COC1CN(C(=O)c2ccc3cncc(-c4ccc5c(cnn5C)c4)c3n2)C1 [Compound 22, (3-methoxyazetidin-1-yl)(8-(1-methyl-1H-indazol-5-yl)-1,6-naphthyridin-2-yl)methanone]
